Measured values published in ChEMBL document CHEMBL1129892, “Tetracyclic analogues of [+]-S 14297: Synthesis and determination of affinity and selectivity at cloned human dopamine D3 vs D2 receptors” (Bioorg Med Chem Lett, 1997).

Tests used:
[1] = molecular target: D(3) dopamine receptor (Homo sapiens, UniProt P35462); assay: biochemical
Description: Inhibition of [125 I]iodosulpiride binding to human Dopamine receptor D3 expressed in CHO cell membranes

[2] = molecular target: D(2) dopamine receptor (Homo sapiens, UniProt P14416); format: cell membranes, CHO
Chain of D(2) dopamine receptor (P14416 whole entry): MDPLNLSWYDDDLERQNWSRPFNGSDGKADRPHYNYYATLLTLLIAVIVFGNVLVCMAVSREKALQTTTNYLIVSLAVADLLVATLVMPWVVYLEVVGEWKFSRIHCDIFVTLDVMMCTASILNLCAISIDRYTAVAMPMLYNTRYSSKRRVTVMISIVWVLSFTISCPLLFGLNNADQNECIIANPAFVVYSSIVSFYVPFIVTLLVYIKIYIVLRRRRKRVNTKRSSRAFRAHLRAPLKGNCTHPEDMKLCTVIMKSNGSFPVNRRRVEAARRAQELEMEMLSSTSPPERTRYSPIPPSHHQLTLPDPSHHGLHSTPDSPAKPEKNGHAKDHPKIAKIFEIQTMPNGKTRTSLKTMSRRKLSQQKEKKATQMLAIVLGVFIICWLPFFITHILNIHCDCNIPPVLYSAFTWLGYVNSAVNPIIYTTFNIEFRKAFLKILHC

Chain of D(3) dopamine receptor (P35462 whole entry): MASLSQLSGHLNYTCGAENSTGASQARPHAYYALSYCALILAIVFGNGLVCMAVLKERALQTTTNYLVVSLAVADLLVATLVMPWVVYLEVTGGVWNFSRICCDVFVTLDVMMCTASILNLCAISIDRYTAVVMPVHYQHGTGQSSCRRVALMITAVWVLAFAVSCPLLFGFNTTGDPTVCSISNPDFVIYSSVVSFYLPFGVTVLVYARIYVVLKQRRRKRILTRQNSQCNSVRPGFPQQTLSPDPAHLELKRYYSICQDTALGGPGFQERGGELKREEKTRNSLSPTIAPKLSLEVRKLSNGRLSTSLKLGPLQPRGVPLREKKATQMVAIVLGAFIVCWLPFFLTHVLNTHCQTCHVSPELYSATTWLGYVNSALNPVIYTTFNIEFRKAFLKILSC

Compound | Ki [1] [nM] | Ki [2] [nM]
CCCN(CCC)C1CCc2cc3c(cc2C1)OCC3 (stereo not given) | 12.6 | 251
CC(C)CN1CCO[C@@H]2c3cc4c(cc3CC[C@H]21)CCO4 | 126 | 5010
CCCN1CCO[C@@H]2c3cc4c(cc3CC[C@H]21)CCO4 | – | 398
CCCN1CCO[C@@H]2c3cc4c(cc3OC[C@H]21)CCO4 | – | 12600
CCCN1CCC[C@@H]2c3cc4c(cc3CC[C@H]21)CCO4 | 25.1 | 501
c1c2c(cc3c1CC[C@@H]1[C@@H]3OCCN1CC1CC1)OCC2 | 63.1 | 2510
c1c2c(cc3c1CC[C@H]1NCCO[C@H]31)OCC2 | 200 | 1000
CN1CCO[C@@H]2c3cc4c(cc3CC[C@H]21)CCO4 | 79.4 | 398
CCCN1CCO[C@H]2c3cc4c(cc3CC[C@H]21)CCO4 | – | > 10000
CCCN1CCO[C@H]2c3cc4c(cc3OC[C@H]21)CCO4 | – | > 100000
c1ccc(CN2CCO[C@@H]3c4cc5c(cc4CC[C@H]32)CCO5)cc1 | > 10000 | > 10000
c1ccc(CCN2CCO[C@@H]3c4cc5c(cc4CC[C@H]32)CCO5)cc1 | > 10000 | > 10000
